In patent US12065444B2, “Substituted tetrazolo[1,5-a]pyrazines and tetrazolo[1,5-c]pyrimidines as adenosine receptor antagonists” (Crossignal Therapeutics, Inc., priority 2021, dated 2024):

What was measured:
[1] = biological target: human adenosine A2a receptor (Homo sapiens, UniProt P29274); assay: Adenosine A2a receptor whole cell cyclic AMP assay; conditions: for inhibition at 10 µM: HEK293, 1 h, read-out: A2a @ 100 μM Adenosine (A2a cAMP IC50)
[2] = biological target: T1, human adenosine A2b receptor (Homo sapiens, UniProt P29275); assay: Adenosine A2b receptor whole cell cyclic AMP assay; conditions: for inhibition at 10 µM: HEK293, 1 h, read-out: A2b @ 10 μM Adenosine (A2b cAMP IC50)
T1 sequence (P29275 1-332): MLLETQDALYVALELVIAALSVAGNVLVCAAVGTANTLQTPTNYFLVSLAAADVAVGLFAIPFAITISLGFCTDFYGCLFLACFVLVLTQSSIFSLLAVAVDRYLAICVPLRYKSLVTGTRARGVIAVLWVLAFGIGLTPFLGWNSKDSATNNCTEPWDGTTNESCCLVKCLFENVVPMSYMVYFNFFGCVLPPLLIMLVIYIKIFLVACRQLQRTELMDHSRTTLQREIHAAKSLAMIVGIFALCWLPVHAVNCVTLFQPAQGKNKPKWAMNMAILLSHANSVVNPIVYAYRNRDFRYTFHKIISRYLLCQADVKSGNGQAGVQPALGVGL

[3] = A2a @ 1 μM Adenosine (A2a cAMP IC50), HEK293 cells stably expressing human A2a, 1 μM adenosine, 1 hour compound treatment
[4] = A2a @ 100 μM Adenosine (A2a cAMP IC50), HEK293 cells stably expressing human A2a, 100 μM adenosine, 1 hour compound treatment

Sequence of human adenosine A2a receptor (P29274 whole entry): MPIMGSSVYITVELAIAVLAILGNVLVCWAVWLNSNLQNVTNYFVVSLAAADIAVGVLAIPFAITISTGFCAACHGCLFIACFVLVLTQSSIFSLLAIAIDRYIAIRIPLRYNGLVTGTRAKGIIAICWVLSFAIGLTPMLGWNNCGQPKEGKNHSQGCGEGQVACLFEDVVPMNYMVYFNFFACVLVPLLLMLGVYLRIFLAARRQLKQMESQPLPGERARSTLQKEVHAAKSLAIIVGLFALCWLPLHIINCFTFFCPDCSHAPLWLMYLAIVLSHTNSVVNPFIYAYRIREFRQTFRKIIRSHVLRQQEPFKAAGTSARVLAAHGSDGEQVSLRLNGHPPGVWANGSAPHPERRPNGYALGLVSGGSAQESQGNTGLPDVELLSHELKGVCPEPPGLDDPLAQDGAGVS

SMILES: Cc1ccnc2ccc(-c3c(-c4ccc(F)cc4)nc(N)c4nnnn34)cc12 [1-6, 6-(4-fluorophenyl)-5-(4-methylquinolin-6-yl)tetrazolo[1,5-a]pyrazin-8-amine]
- IC50 [1, 3]: < 100 nM
- inhibition at 10 µM [2]: < 25%

SMILES: Cc1cnc2ccc(-c3c(-c4ccc(F)cc4)nc(N)c4nnnn34)cn12 [1-7, 6-(4-fluorophenyl)-5-(3-methylimidazo[1,2-a]pyridin-6-yl)tetrazolo[1,5-a]pyrazin-8-amine]
- IC50 [1, 3]: < 100 nM
- IC50 [1, 4]: 100 to 1000 nM
- IC50 [2]: 100 to 1000 nM

SMILES: Cn1cnc2ccc(-c3c(-c4ccc(F)cc4)nc(N)c4nnnn34)cc21 [1-13, 6-(4-fluorophenyl)-5-(1-methyl-1H-benzo[d]imidazol-6-yl)tetrazolo[1,5-a]pyrazin-8-amine]
- IC50 [1, 3]: < 100 nM
- IC50 [1, 4]: 100 to 1000 nM
- IC50 [2]: 100 to 1000 nM

SMILES: Nc1nc(-c2ccc(F)cc2)c(-c2ccc3ncc(CO)n3c2)n2nnnc12 [1-20, (6-(8-amino-6-(4-fluorophenyl)tetrazolo[1,5-a]pyrazin-5-yl)imidazo[1,2-a]pyridin-3-yl)methanol]
- IC50 [1, 3]: < 100 nM
- IC50 [1, 4]: > 1000 nM
- IC50 [2]: 100 to 1000 nM

SMILES: Cc1cnc2ccc(-c3c(-c4ccc(F)cc4)nc(N)n4nnnc34)cn12 [1-25, 7-(4-fluorophenyl)-8-(3-methylimidazo[1,2-a]pyridin-6-yl)tetrazolo[1,5-c]pyrimidin-5-amine]
- IC50 [1, 3]: < 100 nM
- IC50 [1, 4]: 100 to 1000 nM
- IC50 [2]: 100 to 1000 nM

SMILES: Nc1nc(-c2ccc(F)cc2)c(-c2cc(Cl)nc(C(F)(F)F)c2)c2nnnn12 [1-34, 8-(2-chloro-6-(trifluoromethyl)pyridin-4-yl)-7-(4-fluorophenyl)tetrazolo[1,5-c]pyrimidin-5-amine]
- IC50 [1, 3]: 100 to 1000 nM
- IC50 [1, 4]: > 1000 nM
- inhibition at 10 µM [2]: < 25%

SMILES: Cc1ccnc2ccc(-c3c(-c4ccc(F)cc4)nc(N)n4nnnc34)cc12 [1-36, 7-(4-fluorophenyl)-8-(4-methylquinolin-6-yl)tetrazolo[1,5-c]pyrimidin-5-amine]
- IC50 [1, 3]: < 100 nM
- IC50 [2]: 100 to 1000 nM

SMILES: COc1ccc(-c2nc(N)c3nnnn3c2-c2ccc3nccc(C)c3c2)cc1 [1-38, 6-(4-methoxyphenyl)-5-(4-methylquinolin-6-yl)tetrazolo[1,5-a]pyrazin-8-amine]
- IC50 [1, 3]: 100 to 1000 nM
- inhibition at 10 µM [2]: < 25%

SMILES: N#Cc1cc(-c2c(-c3ccc(F)cc3)nc(N)n3nnnc23)cc(Cl)n1 [1-41, 4-(5-amino-7-(4-fluorophenyl)tetrazolo[1,5-c]pyrimidin-8-yl)-6-chloropicolinonitrile]
- IC50 [1, 3]: 100 to 1000 nM

SMILES: Nc1nc(-c2ccc(F)cc2)c(-c2ccc3nc[nH]c3c2)c2nnnn12 [1-42, 8-(1H-benzo[d]imidazol-6-yl)-7-(4-fluorophenyl)tetrazolo[1,5-c]pyrimidin-5-amine]
- IC50 [1, 3]: 100 to 1000 nM

SMILES: Cc1ccnc2ccc(-c3c(-c4ccc(F)cc4F)nc(N)c4nnnn34)cc12 [1-43, 6-(2,4-difluorophenyl)-5-(4-methylquinolin-6-yl)tetrazolo[1,5-a]pyrazin-8-amine]
- IC50 [1, 3]: < 100 nM
- inhibition at 10 µM [1]: < 25%
- inhibition at 10 µM [2]: < 25%

SMILES: Cc1ccnc2ccc(-c3c(-c4ccc(C#N)cc4)nc(N)c4nnnn34)cc12 [1-44, 4-(8-amino-5-(4-methylquinolin-6-yl)tetrazolo[1,5-a]pyrazin-6-yl)benzonitrile]
- IC50 [1, 3]: < 100 nM

SMILES: Cc1ccnc2ccc(-c3c(-c4ccccc4Cl)nc(N)c4nnnn34)cc12 [1-45, 6-(2-chlorophenyl)-5-(4-methylquinolin-6-yl)tetrazolo[1,5-a]pyrazin-8-amine]
- IC50 [1, 3]: 100 to 1000 nM

SMILES: Cc1ccnc2ccc(-c3c(-c4ccncc4)nc(N)c4nnnn34)cc12 [1-46, 5-(4-methylquinolin-6-yl)-6-(pyridin-4-yl)tetrazolo[1,5-a]pyrazin-8-amine]
- IC50 [1, 3]: 100 to 1000 nM

SMILES: Cc1ccnc2ccc(-c3c(-c4cccnc4)nc(N)c4nnnn34)cc12 [1-47, 5-(4-methylquinolin-6-yl)-6-(pyridin-3-yl)tetrazolo[1,5-a]pyrazin-8-amine]
- IC50 [1, 3]: 100 to 1000 nM

SMILES: Nc1nc(-c2ccc(F)cc2)c(-c2ccc3ncc(C(F)F)n3c2)n2nnnc12 [1-48, 5-(3-(difluoromethyl)imidazo[1,2-a]pyridin-6-yl)-6-(4-fluorophenyl)tetrazolo[1,5-a]pyrazin-8-amine]
- IC50 [1, 3]: 100 to 1000 nM
- IC50 [1, 4]: 100 to 1000 nM
- IC50 [2]: 100 to 1000 nM

SMILES: Cc1ccnc2ccc(-c3c(-c4ccccc4C#N)nc(N)c4nnnn34)cc12 [1-49, 2-(8-amino-5-(4-methylquinolin-6-yl)tetrazolo[1,5-a]pyrazin-6-yl)benzonitrile]
- IC50 [1, 3]: 100 to 1000 nM

SMILES: Cc1cnc2ccc(-c3c(-c4ccc(C#N)cc4)nc(N)c4nnnn34)cn12 [1-51, 4-(8-amino-5-(3-methylimidazo[1,2-a]pyridin-6-yl)tetrazolo[1,5-a]pyrazin-6-yl)benzonitrile]
- IC50 [1, 3]: 100 to 1000 nM

SMILES: Cn1cnc2ccc(-c3c(-c4ccc(C#N)cc4)nc(N)n4nnnc34)cc21 [1-52, 4-(5-amino-8-(1-methyl-1H-benzo[d]imidazol-6-yl)tetrazolo[1,5-c]pyrimidin-7-yl)benzonitrile]
- IC50 [1, 3]: 100 to 1000 nM

SMILES: COc1ccc(-c2nc(N)c3nnnn3c2-c2ccc3ncn(C)c3c2)cc1 [1-53, 6-(4-methoxyphenyl)-5-(1-methyl-1H-benzo[d]imidazol-6-yl)tetrazolo[1,5-a]pyrazin-8-amine]
- IC50 [1, 3]: < 100 nM
- inhibition at 10 µM [1]: < 25%

SMILES: Cc1cc(-c2c(-c3ccc(F)cc3)nc(N)c3nnnn23)cc(C(F)F)n1 [1-54, 5-(2-(difluoromethyl)-6-methylpyridin-4-yl)-6-(4-fluorophenyl)tetrazolo[1,5-a]pyrazin-8-amine]
- IC50 [1, 3]: 100 to 1000 nM
- inhibition at 10 µM [1]: < 25%

SMILES: Nc1nc(-c2ccc(F)cc2)c(-c2cc(Cl)nc(C(F)(F)F)c2)n2nnnc12 [1-55, 5-(2-chloro-6-(trifluoromethyl)pyridin-4-yl)-6-(4-fluorophenyl)tetrazolo[1,5-a]pyrazin-8-amine]
- IC50 [1, 3]: 100 to 1000 nM
- inhibition at 10 µM [1]: < 25%

SMILES: COc1ccc(-c2nc(N)c3nnnn3c2-c2ccc3ncc(C)n3c2)cc1 [1-56, 6-(4-methoxyphenyl)-5-(3-methylimidazo[1,2-a]pyridin-6-yl)tetrazolo[1,5-a]pyrazin-8-amine]
- IC50 [1, 3]: 100 to 1000 nM
- IC50 [1, 4]: > 1000 nM

SMILES: COc1ccc(-c2nc(N)n3nnnc3c2-c2ccc3ncc(C)n3c2)cc1 [1-57, 7-(4-methoxyphenyl)-8-(3-methylimidazo[1,2-a]pyridin-6-yl)tetrazolo[1,5-c]pyrimidin-5-amine]
- IC50 [1, 3]: 100 to 1000 nM
- IC50 [1, 4]: > 1000 nM
- IC50 [2]: 100 to 1000 nM

SMILES: Cc1cc(-c2c(-c3ccc(F)cc3)nc(N)n3nnnc23)cc(C(F)F)n1 [1-58, 8-(2-(difluoromethyl)-6-methylpyridin-4-yl)-7-(4-fluorophenyl)tetrazolo[1,5-c]pyrimidin-5-amine]
- IC50 [1, 3]: 100 to 1000 nM
- IC50 [1, 4]: > 1000 nM

SMILES: COc1ccc(-c2nc(N)n3nnnc3c2-c2cc(Cl)nc(C(F)(F)F)c2)cc1 [1-59, 8-(2-chloro-6-(trifluoromethyl)pyridin-4-yl)-7-(4-methoxyphenyl)tetrazolo[1,5-c]pyrimidin-5-amine]
- IC50 [1, 3]: 100 to 1000 nM
- IC50 [1, 4]: > 1000 nM

SMILES: Cc1c(C#N)cccc1-c1cc(-c2cn(Cc3cccc(C(C)(C)O)n3)nn2)nc(N)n1 [AB928, reference compound]
- IC50 [1, 3]: 100 to 1000 nM
- IC50 [1, 4]: > 1000 nM
- IC50 [2]: > 1000 nM

SMILES: Cc1ccc(-c2nc(N)nc3c2nnn3Cc2cccc(CO[C@H]3CCOC3)n2)o1 [CPI-444, reference compound]
- A2a @ 100 μM Adenosine (A2a cAMP IC50) ([1]; HEK293 cells stably expressing human A2a, 100 μM adenosine, 1 hour compound treatment, 10 µM): NR (“NR” indicates A2a or A2b mean inhibition is <25% at the top concentration)
- inhibition at 10 µM [2]: < 25%
